In patent publication US7105566B2, “Methods of treatment during vascular procedures” (Allergan, Inc., priority 2002, dated 2006):
Where “and” joins values, the source holds several entries; their conditions need not be identical. Equal values may be shown once.

System: female ZDF rats
Test: Serum triglycerides and cholesterol in female ZDF rats on a diabetogenic high fat diet, Compound 1 at 0.03-0.3 mg/kg
Assay type: in vivo, rat
Details: for Cholesterol day 8, 0 hr, Mean / Triglycerides day 8, 0 hr, Mean / Cholesterol day 0, 4 hr, Mean / Triglycerides day 0, 4 hr, Mean / Cholesterol day 7, 4 hr, Mean / Triglycerides day 7, 4 hr, Mean / Cholesterol day 3, 4 hr, Mean / Triglycerides day 3, 4 hr, Mean: group mean of 4 rats; for Cholesterol day 8, 0 hr, Mean / Triglycerides day 8, 0 hr, Mean / Cholesterol day 8, 0 hr / Triglycerides day 8, 0 hr: 24 hours after the last dosing; for Cholesterol day 0, 4 hr, Mean / Triglycerides day 0, 4 hr, Mean / Cholesterol day 0, 4 hr / Triglycerides day 0, 4 hr: day before dosing (baseline); for Cholesterol day 7, 4 hr, Mean / Triglycerides day 7, 4 hr, Mean / Cholesterol day 7, 4 hr / Triglycerides day 7, 4 hr: seventh day of dosing; for Cholesterol day 3, 4 hr, Mean / Triglycerides day 3, 4 hr, Mean / Cholesterol day 3, 4 hr / Triglycerides day 3, 4 hr: third day of dosing; for Cholesterol day 8, 0 hr / Triglycerides day 8, 0 hr / Cholesterol day 0, 4 hr / Triglycerides day 0, 4 hr / Cholesterol day 7, 4 hr / Triglycerides day 7, 4 hr / Cholesterol day 3, 4 hr / Triglycerides day 3, 4 hr: individual animals
Method: ZDF rats, which are hyperlipidemic and diabetic, were used as a model to test the effect of RAR antagonists/inhibitors on serum lipids. Female ZDF rats (10–11 weeks old) were fed a GMI 13004 diet, a diabetogenic, high fat diet, for 5–6 weeks. Compound 1 was dissolved in vehicle (2% DMSO, 98% corn oil). Compound 1 was administered at a dosage of 0.03 mg/kg, 0.1 mg/kg, and 0.3 mg/kg body weight. Dosings were performed at approximately 8 a.m. Serum was collected at approximately 12 p.m. on the day before dosing (Day 0, 4 hour); the third day of dosing (Day 3, 4 hour); the seventh day of dosing (Day 7, 4 hour); and 24 hours after the last dosing (Day 8, 0 hour). The levels of triglycerides and cholesterol in the serum samples were measured.

## CCc1ccc(C2=CC(C)(C)Sc3ccc(C#Cc4ccc(C(=O)O)cc4)cc32)cc1 [Compound 1, 4-[[4-(4-ethylphenyl)-2,2-dimethyl-(2H)-thiochromen-6-yl]-ethynyl]-benzoic acid]
0.03 mg/kg oral
  serum triglyceride levels as % of pre-treatment triglyceride levels: about 59%
  Cholesterol day 8, 0 hr, Mean: 110
  Triglycerides day 8, 0 hr, Mean: 781
  Cholesterol day 0, 4 hr, Mean: 123
  Triglycerides day 0, 4 hr, Mean: 1334
  Cholesterol day 7, 4 hr, Mean: 109
  Triglycerides day 7, 4 hr, Mean: 749
  Cholesterol day 3, 4 hr, Mean: 105
  Triglycerides day 3, 4 hr, Mean: 794
  Cholesterol day 8, 0 hr: 108 (2×) and 93 and 129
  Triglycerides day 8, 0 hr: 846 and 531 and 1230 and 516
  Cholesterol day 0, 4 hr: 114 and 129 (2×) and 120
  Triglycerides day 0, 4 hr: 1200 and 1245 and 1944 and 945
  Cholesterol day 7, 4 hr: 111 and 105 and 96 and 123
  Triglycerides day 7, 4 hr: 771 and 468 and 855 and 903
  Cholesterol day 3, 4 hr: 93 and 96 and 129 and 102
  Triglycerides day 3, 4 hr: 663 and 651 and 1197 and 666
0.1 mg/kg oral
  serum triglyceride levels as % of pre-treatment triglyceride levels: ~40%
  Cholesterol day 8, 0 hr, Mean: 105
  Triglycerides day 8, 0 hr, Mean: 479
  Cholesterol day 0, 4 hr, Mean: 125
  Triglycerides day 0, 4 hr, Mean: 1208
  Cholesterol day 7, 4 hr, Mean: 107
  Triglycerides day 7, 4 hr, Mean: 505
  Cholesterol day 3, 4 hr, Mean: 106
  Triglycerides day 3, 4 hr, Mean: 497
  Cholesterol day 8, 0 hr: 102 (2×) and 105 and 111
  Triglycerides day 8, 0 hr: 390 and 339 and 486 and 699
  Cholesterol day 0, 4 hr: 123 (2×) and 129 and 126
  Triglycerides day 0, 4 hr: 1284 and 993 and 1197 and 1356
  Cholesterol day 7, 4 hr: 114 and 90 and 111 (2×)
  Triglycerides day 7, 4 hr: 429 and 384 and 618 and 588
  Cholesterol day 3, 4 hr: 129 and 84 and 96 and 114
  Triglycerides day 3, 4 hr: 402 and 360 and 681 and 546
0.3 mg/kg oral
  serum triglyceride levels as % of pre-treatment triglyceride levels: ~14%
  Cholesterol day 8, 0 hr, Mean: 115
  Triglycerides day 8, 0 hr, Mean: 215
  Cholesterol day 0, 4 hr, Mean: 131
  Triglycerides day 0, 4 hr, Mean: 1550
  Cholesterol day 7, 4 hr, Mean: 119
  Triglycerides day 7, 4 hr, Mean: 215
  Cholesterol day 3, 4 hr, Mean: 101
  Triglycerides day 3, 4 hr, Mean: 282
  Cholesterol day 8, 0 hr: 102 and 120 and 123 and 114
  Triglycerides day 8, 0 hr: 222 and 180 and 195 and 261
  Cholesterol day 0, 4 hr: 105 and 141 and 156 and 123
  Triglycerides day 0, 4 hr: 882 and 1725 and 2244 and 1350
  Cholesterol day 7, 4 hr: 99 and 126 and 132 and 120
  Triglycerides day 7, 4 hr: 195 and 222 and 267 and 174
  Cholesterol day 3, 4 hr: 93 and 96 and 108 (2×)
  Triglycerides day 3, 4 hr: 282 and 234 and 297 and 315
0.03-0.3 mg/kg oral
  effect on serum cholesterol levels: effective at lowering serum cholesterol levels, although the effect was more modest than observed for serum triglycerides
